Reference: US20200264182A1, “METHOD FOR DETECTING PROSTATE CANCER” (J-OIL MILLS, INC., priority 2017, published 2020)

Experiments:
FAC binding constant = settings: at 25° C.
Method: (§1) Details of the FAC method are described in Patent Document 2 filed by some of the present applicants, for example.
(§2) Binding constants (at 25° C.) of PhoSL, SRL, NSL and LSL belonging to the fucose α1→6 specific lectin for various sugar chains are shown in Tables 2 to 5.

[1] = FAC binding constant (Table 5 entry); settings: Table 5: sugar chain having no fucose; at 25° C.
Method: as §1, §2

serum fucosylated PSA = assay: Sandwich ELISA, anti-PSA antibody and biotin-labeled lectin; format: binding, human; settings: for Δ (=A − B): reaction value of Prostate cancer 4 minus Healthy 1; for lectin reaction value B of Healthy 1: serum of Healthy 1; for lectin reaction value A of Prostate cancer 4: serum of Prostate cancer 4, GS 6 (3 + 3)
Method: The anti-PSA antibody from which sugar chains had been removed was diluted to 5 μg/mL with PBS. 25 μL of this diluted solution was added to each well of an ELISA plate and allowed to stand at 37° C. for 12 hours, and then the additive solution was discarded.
150 μL of PBS containing 0.05% Tween 20 (product name: polyoxyethylene sorbitan monolaurate, from Nacalai Tesque, Inc.) was added to each well, and then the additive solution was discarded. This manipulation was repeated three times in total.
25 μL of 1% BSA/PBS was added to each well and allowed to stand at 37° C. for 1 hour, and then the additive solution was discarded.
150 μL of PBS containing 0.05% Tween 20 was added to each well, and then the additive solution was discarded. This manipulation was repeated three times in total.
To graph a calibration curve, 25 μL of the fucosylated PSA reference standard diluted with 1% BSA/PBS to a concentration of 0 to 200 ng/mL was added to each well and allowed to stand at room temperature for 1 hour, and then the additive solution was discarded. In addition, to detect the fucosylated PSA in the serum of the subject by the lectin, 25 μL of serum of “Healthy 1” and “Prostate cancer 4” 2-fold diluted with PBS was added to each well and allowed to stand at room temperature for 1 hour, and then the additive solution was discarded.
In Reference Example 1, 25 μL of a biotin-labeled PhoSL diluted to 0.1 μg/mL with 0.1% BSA/PBS (pH 7.4) was added to each well and allowed to stand at 4° C. for 30 minutes, and then the additive solution was discarded. In Example 1, 25 μL of a biotin-labeled PhoSL diluted to 0.1 μg/mL with 0.1% BSA/10-fold diluted PBS+glycine-NaOH (pH 9.6) was added to each well and allowed to stand at 4° C. for 30 minutes, and then the additive solution was discarded.
25 μL of a horseradish peroxidase (HRP)-labeled streptavidin solution (from Vector Laboratories, Inc., concentration: 0.4 μg/mL, in 1% BSA/PBS) was added to each well and allowed to stand at room temperature for 30 minutes, and then the additive solution was discarded.
25 μL of chromogenic substrate for HRP (product name: TMB, from Kirkegaard & Perry Laboratories, Inc.) was added to each well and allowed to stand at room temperature for 10 minutes.
25 μL of 1M phosphoric acid was added to terminate the reaction.
Absorbance (Ab) at 450 nm and 630 nm was measured using a plate reader, and a measurement (Ab450-630) was obtained.
A calibration curve was graphed by plotting signals (reaction values, Ab450-630) of the fucosylated PSA reference standard with the biotin-labeled PhoSL. A Signal (Ab450-630) of the biotin-labeled PhoSL corresponding to the fucosylated PSA concentration of 10 ng/mL was defined as 10 U/mL.
The signals of biotin-labeled PhoSL (Ab450-630) for the serum fucosylated PSA in the subject samples A were assigned to the calibration curve to calculate reaction values (unit: U/mL).
The PhoSL reaction values for the subject samples A were measured by the same operation as in Example 1. From the PhoSL reaction values, an average value and a median value were determined. Furthermore, a standard cutoff value (89.7 U/mL) was used to determine a detection rate (positive rate) of the prostate cancer patients, and a false detection rate (false positive rate) of the healthy persons.
Comparative Example 2 in Table 9 indicates results of detecting the serum fucosylated PSA using AAL (AAL reaction values) in the subject samples A. Specifically, in Reference Example 1, AAL reaction values were measured in the same manner as in Reference Example 1 except that the biotin-labeled PhoSL was replaced with a biotin-labeled AAL. A standard cut-off value for the AAL reaction values was 894.8 U/mL. As in Example 2, an average value, a median value, a positive rate and a false positive rate were determined from the AAL reaction values.

[2] = sugar chain having fucose other than α1→6 fucose

LSL: fucose α1→6 specific lectin that can be extracted from Lepista sordida, SEQ ID No. 3
350000 M⁻¹: Binding constant for sugar chain No. 401 (FAC binding constant; sugar chain having α1→6 fucose)
320000 M⁻¹: Binding constant for sugar chain No. 405 (FAC binding constant; sugar chain having α1→6 fucose)
280000 M⁻¹: Binding constant for sugar chain No. 407 (FAC binding constant; sugar chain having α1→6 fucose) | Binding constant for sugar chain No. 413 (FAC binding constant; sugar chain having α1→6 fucose)
190000 M⁻¹: Binding constant for sugar chain No. 015 (FAC binding constant; sugar chain having α1→6 fucose)
<1000 M⁻¹: Binding constant for sugar chain No. 728 (FAC binding constant; Table 3: sugar chain having fucose other than α1→6 fucose) | Binding constant for sugar chain No. 419 (FAC binding constant; [2]) | Binding constant for sugar chain No. 420 (FAC binding constant; [2]) | Binding constant for sugar chain No. 718 (FAC binding constant; [2]) | Binding constant for sugar chain No. 719 (FAC binding constant; [2]) | Binding constant for sugar chain No. 720 (FAC binding constant; [2]) | Binding constant for sugar chain No. 721 (FAC binding constant; [2]) | Binding constant for sugar chain No. 722 (FAC binding constant; [2]) | Binding constant for sugar chain No. 723 (FAC binding constant; [2]) | Binding constant for sugar chain No. 726 (FAC binding constant; [2]) | Binding constant for sugar chain No. 727 (FAC binding constant; [2]) | Binding constant for sugar chain No. 729 (FAC binding constant; [2]) | Binding constant for sugar chain No. 730 (FAC binding constant; [2]) | Binding constant for sugar chain No. 731 (FAC binding constant; [2]) | Binding constant for sugar chain No. 739 (FAC binding constant; [2]) | Binding constant for sugar chain No. 909 (FAC binding constant; [2]) | Binding constant for sugar chain No. 910 (FAC binding constant; [2]) | Binding constant for sugar chain No. 931 (FAC binding constant; [2]) | Binding constant for sugar chain No. 932 (FAC binding constant; [2]) | Binding constant for sugar chain No. 933 (FAC binding constant; [2]) | Binding constant for sugar chain No. 001 (FAC binding constant; sugar chain having no fucose) | Binding constant for sugar chain No. 002 (FAC binding constant; sugar chain having no fucose) | Binding constant for sugar chain No. 003 (FAC binding constant; sugar chain having no fucose) | Binding constant for sugar chain No. 004 (FAC binding constant; sugar chain having no fucose) | Binding constant for sugar chain No. 005 (FAC binding constant; sugar chain having no fucose) | Binding constant for sugar chain No. 006 (FAC binding constant; sugar chain having no fucose) | Binding constant for sugar chain No. 007 (FAC binding constant; sugar chain having no fucose) | Binding constant for sugar chain No. 008 (FAC binding constant; sugar chain having no fucose) | Binding constant for sugar chain No. 009 (FAC binding constant; sugar chain having no fucose) | Binding constant for sugar chain No. 010 (FAC binding constant; sugar chain having no fucose) | Binding constant for sugar chain No. 011 (FAC binding constant; sugar chain having no fucose) | Binding constant for sugar chain No. 012 (FAC binding constant; sugar chain having no fucose) | Binding constant for sugar chain No. 013 (FAC binding constant; sugar chain having no fucose) | Binding constant for sugar chain No. 014 (FAC binding constant; sugar chain having no fucose) | Binding constant for sugar chain No. 101 (FAC binding constant; sugar chain having no fucose) | Binding constant for sugar chain No. 103 (FAC binding constant; sugar chain having no fucose) | Binding constant for sugar chain No. 104 (FAC binding constant; sugar chain having no fucose) | Binding constant for sugar chain No. 105 (FAC binding constant; sugar chain having no fucose) | Binding constant for sugar chain No. 107 (FAC binding constant; sugar chain having no fucose) | Binding constant for sugar chain No. 108 (FAC binding constant; sugar chain having no fucose) | Binding constant for sugar chain No. 301 (FAC binding constant; sugar chain having no fucose) | Binding constant for sugar chain No. 304 (FAC binding constant; sugar chain having no fucose) | Binding constant for sugar chain No. 305 (FAC binding constant; sugar chain having no fucose) | Binding constant for sugar chain No. 307 (FAC binding constant; sugar chain having no fucose) | Binding constant for sugar chain No. 308 (FAC binding constant; sugar chain having no fucose) | Binding constant for sugar chain No. 313 (FAC binding constant; sugar chain having no fucose) | Binding constant for sugar chain No. 314 (FAC binding constant; sugar chain having no fucose) | Binding constant for sugar chain No. 323 (FAC binding constant; sugar chain having no fucose) | Binding constant for sugar chain No. 501 (FAC binding constant; sugar chain having no fucose) | Binding constant for sugar chain No. 502 (FAC binding constant; sugar chain having no fucose) | Binding constant for sugar chain No. 503 (FAC binding constant; sugar chain having no fucose) | Binding constant for sugar chain No. 504 (FAC binding constant; sugar chain having no fucose) | Binding constant for sugar chain No. 701 (FAC binding constant; sugar chain having no fucose) | Binding constant for sugar chain No. 702 (FAC binding constant; sugar chain having no fucose) | Binding constant for sugar chain No. 703 (FAC binding constant; sugar chain having no fucose) | Binding constant for sugar chain No. 704 (FAC binding constant; sugar chain having no fucose) | Binding constant for sugar chain No. 705 (FAC binding constant; sugar chain having no fucose) | Binding constant for sugar chain No. 706 (FAC binding constant; sugar chain having no fucose) | Binding constant for sugar chain No. 707 (FAC binding constant; sugar chain having no fucose) | Binding constant for sugar chain No. 708 (FAC binding constant; sugar chain having no fucose) | Binding constant for sugar chain No. 709 (FAC binding constant; sugar chain having no fucose) | Binding constant for sugar chain No. 710 (FAC binding constant; sugar chain having no fucose) | Binding constant for sugar chain No. 711 (FAC binding constant; sugar chain having no fucose) | Binding constant for sugar chain No. 712 (FAC binding constant; sugar chain having no fucose) | Binding constant for sugar chain No. 713 (FAC binding constant; sugar chain having no fucose) | Binding constant for sugar chain No. 715 (FAC binding constant; sugar chain having no fucose) | Binding constant for sugar chain No. 716 (FAC binding constant; sugar chain having no fucose) | Binding constant for sugar chain No. 717 (FAC binding constant; sugar chain having no fucose) | Binding constant for sugar chain No. 724 (FAC binding constant; sugar chain having no fucose) | Binding constant for sugar chain No. 725 (FAC binding constant; sugar chain having no fucose) | Binding constant for sugar chain No. 732 (FAC binding constant; sugar chain having no fucose) | Binding constant for sugar chain No. 733 (FAC binding constant; sugar chain having no fucose) | Binding constant for sugar chain No. 734 (FAC binding constant; sugar chain having no fucose) | Binding constant for sugar chain No. 735 (FAC binding constant; sugar chain having no fucose) | Binding constant for sugar chain No. 736 (FAC binding constant; sugar chain having no fucose) | Binding constant for sugar chain No. 737 (FAC binding constant; sugar chain having no fucose) | Binding constant for sugar chain No. 738 (FAC binding constant; sugar chain having no fucose) | Binding constant for sugar chain No. 901 (FAC binding constant; sugar chain having no fucose) | Binding constant for sugar chain No. 902 (FAC binding constant; sugar chain having no fucose) | Binding constant for sugar chain No. 903 (FAC binding constant; sugar chain having no fucose) | Binding constant for sugar chain No. 905 (FAC binding constant; sugar chain having no fucose) | Binding constant for sugar chain No. 906 (FAC binding constant; sugar chain having no fucose) | Binding constant for sugar chain No. 907 (FAC binding constant; sugar chain having no fucose) | Binding constant for sugar chain No. 728 [1]
200000 M⁻¹: Binding constant for sugar chain No. 203 (FAC binding constant; sugar chain having α1→6 fucose) | Binding constant for sugar chain No. 402 (FAC binding constant; sugar chain having α1→6 fucose)
390000 M⁻¹: Binding constant for sugar chain No. 404 (FAC binding constant; sugar chain having α1→6 fucose)
340000 M⁻¹: Binding constant for sugar chain No. 403 (FAC binding constant; sugar chain having α1→6 fucose)
220000 M⁻¹: Binding constant for sugar chain No. 406 (FAC binding constant; sugar chain having α1→6 fucose) | Binding constant for sugar chain No. 410 (FAC binding constant; sugar chain having α1→6 fucose) | Binding constant for sugar chain No. 418 (FAC binding constant; sugar chain having α1→6 fucose)
120000 M⁻¹: Binding constant for sugar chain No. 602 (FAC binding constant; sugar chain having α1→6 fucose)
230000 M⁻¹: Binding constant for sugar chain No. 201 (FAC binding constant; sugar chain having α1→6 fucose) | Binding constant for sugar chain No. 202 (FAC binding constant; sugar chain having α1→6 fucose)
240000 M⁻¹: Binding constant for sugar chain No. 601 (FAC binding constant; sugar chain having α1→6 fucose)

PhoSL peptide: synthesized Pholiota squarrosa lectin peptide, SEQ ID No. 6 (Lys substitutions at 1, 20, 39; 40th Gly deleted) (KPVPVTKLVCDGDTYKCTAKLDFGDGRWVAQWDTNVFHK; Modification of SEQ ID(1) in which Ala at position 1, Tyr at position 20 and Thr at position 39 are substituted with Lys, and Gly at position 40 is deleted.)
101.5 U/mL: lectin reaction value A of Prostate cancer 4 (serum fucosylated PSA; pH in lectin reaction 7.4)
Below detection limit: lectin reaction value B of Healthy 1 (serum fucosylated PSA; pH in lectin reaction 9.6)
1.0 U/mL: lectin reaction value B of Healthy 1 (serum fucosylated PSA; pH in lectin reaction 7.4)
100.5 U/mL: Δ (=A − B) (serum fucosylated PSA; pH in lectin reaction 7.4)
234.4 U/mL: Δ (=A − B) (serum fucosylated PSA; pH in lectin reaction 9.6) | lectin reaction value A of Prostate cancer 4 (serum fucosylated PSA; pH in lectin reaction 9.6)
